For series [1] the following is noted: free base; background statement; cited from earlier work.
Series [2] is described as follows: Solubility in water (general statements). It counts as physicochemical. Conditions: general statement.
Series [3] in a line: Osmolality of the product. It counts as physicochemical.
A short description of series [4]: Titration with sodium hydroxide. It counts as physicochemical. On the procedure: 561 mg amonafide dihydrochloride (1.57 mmol) was dissolved in 10 mL water to yield a clear red solution with pH at 1.2. With constant stirring, 1N NaOH solution was added. Solution remained clear until pH greater than 6.7. As shown in the titration curve below, 3.3 mmol NaOH was used to neutralize amonafide dihydrochloride in the solution. The calculated mol ratio of amonafide to NaOH was 1:2. [drawing]

A short description of the next series: physchem. The series is classed as physicochemical. On the procedure: Precipitation occurs as pH increases above 6.5. Solubility is about 1 mg/mL at pH 9 and 0.05 mg/mL at pH 11.

Counter-ions that a name gives are not always drawn.

On to `CN(C)CCN1C(=O)c2cccc3cc(N)cc(c23)C1=O` [Amonafide, 5-amino-2-[(dimethylamine)ethyl]-1H-benz[de-]isoquinoline-1,3-(2H)-dione], for which, in series [1], the solubility in water entry was “very poorly soluble”.
The term solubility denotes the dissolved amount per volume that the medium holds. A high value points to much dissolved substance. In the case of `CN(C)CCN1C(=O)c2cccc3cc(N)cc(c23)C1=O` [amonafide dihydrochloride], the “solubility in water compared to monohydrochloride salt” value in series [2] is “more soluble in water”. Besides, the osmolality result in series [3] is “equivalent to 0.9% sodium chloride solution”. Besides, the pH of solution in series [4] (561 mg (1.57 mmol) dissolved in 10 mL water, clear red solution) is 1.2. Moreover, in series [4] (1N NaOH added with constant stirring), the “pH until which solution remained clear” value is on record as “greater than 6.7”. Further, the “pH above which precipitation occurs” value in the series “physchem” (as pH increases) was “above 6.5”. Also, the solubility in “physchem” (pH 1, water) was greater than 250000 µg/mL; in the series “physchem” (pH 9, aqueous buffer), roughly 1000 µg/mL; in the series “physchem” (pH 11, aqueous buffer), 50 µg/mL.

The record behind these values is patent US20050113579A1, “Naphthalimide synthesis including amonafide synthesis and pharmaceutical preparations thereof” (ChemGenex Therapeutics, Inc., priority 2002, published 2005).
